We go through 28 molecules from paper PMC3446843 (Toxicological Sciences, 2012).

For series [1], the system named is isolated mouse liver mitochondria, complex I. The series can be described thus: Oxygen consumption through complex I. As to conditions: for O2 cons CI EC20: inhibition of oxygen consumption, malate + glutamate + ADP, 2µM rotenone = 100%; for effect on oxygen consumption (in words): with malate/glutamate and/or succinate.
Series [2] relates to isolated mouse liver mitochondria. The series can be described thus: Cytochrome c release. In kind it is biochemical. Particulars: without Ca2+ pulse.
The test system is the same in series [3]. The series can be described thus: Loss of mitochondrial transmembrane potential. The class given is biochemical. Particulars: for ΔΨm loss EC20: 20% of maximal loss of ΔΨm (50µM mClCCP = 100%), 30-min incubation.
Series [4] shares this test system. The series can be described thus: Mitochondrial swelling. As to conditions: without Ca2+ pulse.
For series [5] the following is noted: short incubation of isolated mitochondria; ref Kamel et al. (2012); cited from earlier work.

In the case of `O=C(O)Cc1ccccc1Nc1c(Cl)cccc1Cl` [Diclofenac], the “O2 cons CI EC20” value in series [1] was determined as 29.8 µM. Besides, in series [2], the “induction of cytochrome c release (in words)” value is reported as “unable to induce”. Besides, the “ΔΨm loss EC20” value in series [3] came to 137.9 µM.

For the molecule `CCOC(=O)[N-]c1cn(N2CCOCC2)n[o+]1` [Molsidomine], in series [1], the “O2 cons CI EC20” value is listed as over 200 µM. Moreover, in series [3], the “ΔΨm loss EC20” value is over 400 µM.

For the molecule `C=CCN1CC[C@]23c4c5ccc(O)c4O[C@H]2C(=O)CC[C@@]3(O)[C@H]1C5` [Naloxone], the “O2 cons CI EC20” value in series [1] is reported as over 400 µM. Also, the “ΔΨm loss EC20” value in series [3] was found to be 298.7 µM.

In the case of `CN1CCC[C@H]1c1cccnc1` [Nicotine], the “O2 cons CI EC20” value in series [1] was 312 µM. Also, the “ΔΨm loss EC20” value in series [3] is listed as over 400 µM.

As to `O=C(N/N=C/c1ccc([N+](=O)[O-])o1)c1ccc(O)cc1` [Nifuroxazide], the “O2 cons CI EC20” value in series [1] is 3.7 µM. Moreover, the “ΔΨm loss EC20” value in series [3] is recorded as 388.2 µM.

Take `O=C1CN(/N=C/c2ccc([N+](=O)[O-])o2)C(=O)N1` [Nitrofurantoin]: in series [1], the “O2 cons CI EC20” value is recorded as 8.7 µM. In series [3], the “ΔΨm loss EC20” value is reported as 442.5 µM.

As to `CO[C@@H]1[C@@H](OC(N)=O)[C@@H](O)[C@H](Oc2ccc3c(O)c(NC(=O)c4ccc(O)c(CC=C(C)C)c4)c(=O)oc3c2C)OC1(C)C` [Novobiocin], the “O2 cons CI EC20” value in series [1] is 173.5 µM. The “ΔΨm loss EC20” value in series [3] was 351.6 µM.

Turning to `CCN(CC)CC#CCOC(=O)C(O)(c1ccccc1)C1CCCCC1` (stereo not drawn) [Oxybutynine], in series [1], the “O2 cons CI EC20” value is listed as 115.4 µM. Besides, in series [3], the “ΔΨm loss EC20” value worked out at 178.3 µM.

Regarding `C#CCN(C)Cc1ccccc1` [Pargyline], the “O2 cons CI EC20” value in series [1] worked out at 206.8 µM. The “ΔΨm loss EC20” value in series [3] is recorded as 243 µM.

With `C1CCC(C(CC2CCCCN2)C2CCCCC2)CC1` (stereo not drawn) [Perhexiline], the “O2 cons CI EC20” value in series [1] is on record as 87.7 µM. Besides, the “induction of mitochondrial swelling (in words)” value in series [4] was “induced mitochondrial swelling and cytochrome c release when very low concentrations were used”. The “induction of cytochrome c release (in words)” value in series [2] is “induced mitochondrial swelling and cytochrome c release when very low concentrations were used”. For the same molecule, the “ΔΨm loss EC20” value in series [3] worked out at 3.2 µM.

Consider `Oc1cc(O)cc(O)c1` [Phloroglucinol], for which the “O2 cons CI EC20” value in series [1] is given as over 400 µM. The “ΔΨm loss EC20” value in series [3] is over 800 µM.

Regarding `CN1C(C(=O)Nc2ccccn2)=C(O)c2ccccc2S1(=O)=O` [Piroxicam], the “O2 cons CI EC20” value in series [1] is 6.6 µM. Also, the “ΔΨm loss EC20” value in series [3] is on record as 101.7 µM.

Consider `CCCOC(=O)c1ccc(O)cc1` [Propyl paraben], for which, in series [1], the “O2 cons CI EC20” value is listed as 28.4 µM. In series [3], the “ΔΨm loss EC20” value is on record as 162.8 µM.

On to `NC(=O)c1cnccn1` [Pyrazinamide], for which the “O2 cons CI EC20” value in series [1] came out at 190.9 µM. Besides, in series [3], the “ΔΨm loss EC20” value is given as over 400 µM.

Turning to `CNC(=C[N+](=O)[O-])NCCSCc1ccc(CN(C)C)o1` [Ranitidine], in series [1], the “O2 cons CI EC20” value is 97.3 µM. In series [3], the “ΔΨm loss EC20” value is listed as 368.1 µM.

Regarding `O=C1NS(=O)(=O)c2ccccc21` [Saccharin], the “O2 cons CI EC20” value in series [1] came out at 179.4 µM. For the same molecule, in series [3], the “ΔΨm loss EC20” value is over 400 µM.

Turning to `O=C(O)c1ccccc1O` [Salicylic acid], the “O2 cons CI EC20” value in series [1] was 120.9 µM. Also, the “ΔΨm loss EC20” value in series [3] is 304.3 µM.

`CC(C)(C)NC(=O)[C@@H]1C[C@@H]2CCCC[C@@H]2CN1C[C@@H](O)[C@H](Cc1ccccc1)NC(=O)[C@H](CC(N)=O)NC(=O)c1ccc2ccccc2n1` [Saquinavir]: the “effect on oxygen consumption (in words)” value in series [1] was “increased oxygen consumption”. In series [3], the “ΔΨm loss EC20” value was 10.3 µM. For the same molecule, in series [3] (ΔΨm and respiration), the “concentrations collapsing the ΔΨm and altering the mitochondrial respiration” value is reported as “lower than 50 μM”.

`CN[C@@H]1[C@H](O)[C@H](NC)[C@H]2O[C@@]3(O)C(=O)C[C@@H](C)O[C@H]3O[C@@H]2[C@H]1O` [Spectinomycin]: in series [1], the “effect on oxygen consumption (in words)” value is “increased oxygen consumption”. The “ΔΨm loss EC20” value in series [3] is given as over 400 µM.

For the molecule `OC[C@H]1O[C@@](CO)(O[C@H]2O[C@H](CO)[C@@H](O)[C@H](O)[C@H]2O)[C@@H](O)[C@@H]1O` [Sucrose], the “O2 cons CI EC20” value in series [1] is on record as over 800 µM. Further, in series [3], the “ΔΨm loss EC20” value is listed as over 800 µM.

With `Cc1cc(NS(=O)(=O)c2ccc(N)cc2)no1` [Sulfamethoxazole], the “O2 cons CI EC20” value in series [1] is over 400 µM. Also, in series [3], the “ΔΨm loss EC20” value is over 400 µM.

For `CC1=C(CC(=O)O)c2cc(F)ccc2/C1=C\c1ccc([S+](C)[O-])cc1` (stereo not drawn) [Sulindac], the “O2 cons CI EC20” value in series [1] was found to be 35.6 µM. The “ΔΨm loss EC20” value in series [3] is recorded as over 200 µM.

On to `CNS(=O)(=O)Cc1ccc2[nH]cc(CCN(C)C)c2c1` [Sumatriptan], for which the “O2 cons CI EC20” value in series [1] is over 400 µM. Moreover, in series [5], the compound metabolized is 30%. For the same molecule, in series [3], the “ΔΨm loss EC20” value is recorded as 248.3 µM.

`NCCS(=O)(=O)O` [Taurine]: the “O2 cons CI EC20” value in series [1] is given as over 800 µM. Besides, the “ΔΨm loss EC20” value in series [3] is over 800 µM.

Turning to `Cc1c(C)c2c(c(C)c1O)CCC(C)(COc1ccc(CC3SC(=O)NC3=O)cc1)O2` (stereo not drawn) [Troglitazone], the “O2 cons CI EC20” value in series [1] amounted to 6.0 µM. Moreover, the “induction of mitochondrial swelling (in words)” value in series [4] was “unable to trigger”. Besides, the “induction of cytochrome c release (in words)” value in series [2] is listed as “unable to trigger”. The “ΔΨm loss EC20” value in series [3] is 3.4 µM.

`C[C@@H]1O[C@@H](OC[C@H]2O[C@@H](Oc3c(-c4ccc(OCCO)c(OCCO)c4)oc4cc(OCCO)cc(O)c4c3=O)[C@H](O)[C@@H](O)[C@@H]2O)[C@H](O)[C@H](O)[C@H]1O` [Troxerutin]: the “O2 cons CI EC20” value in series [1] came to 170.5 µM. The “ΔΨm loss EC20” value in series [3] is over 400 µM.

Regarding `CCCC(CCC)C(=O)O` [Valproic acid], in series [1], the “O2 cons CI EC20” value is 44.9 µM. Moreover, in series [3], the “ΔΨm loss EC20” value amounted to 267.2 µM.

Consider `Cc1cn([C@H]2C[C@H](N=[N+]=[N-])[C@@H](CO)O2)c(=O)[nH]c1=O` [Zidovudine], for which the “effect on oxygen consumption (in words)” value in series [1] is “increased oxygen consumption”. Also, the “ΔΨm loss EC20” value in series [3] was found to be 416.1 µM.
